10 molecules from ChEMBL document CHEMBL6071152, “Design, synthesis, and biological evaluation of oridonin derivatives as novel NLRP3 inflammasome inhibitors for the treatment of acute lung injury” (Eur J Med Chem, 2024) can be followed below.

Each structure is given as a SMILES string. Calls of active or inactive are those of the source. The rule behind the calls is not given here. Some results are limits rather than exact numbers.

A short description of data set [1]: Cytotoxicity against ICR mouse BMDM assessed as reduction in cell viability incubated for 24 hrs by CCK8 assay. It is filed as toxicity, cell-based. The conditions noted are these: BMDM (bone marrow-derived macrophages). In general terms: Formazan colour is commonly taken as a measure of viable cells.
The subject of data set [2] is Mus musculus. Kind of data set: Anti-inflammatory activity against LPS-stimulated acute lung injury C57BL/6 mouse model assessed as active animal at 5 mg/kg, ip treated for 3 days and on third day administered with LPS at 30 mins post-compound challenge. It is filed as functional, organism-based. The conditions noted are these: time 3.0 day.
For data set [3], the system named is Mus musculus. Kind of data set: Anti-inflammatory activity against LPS-stimulated acute lung injury C57BL/6 mouse model assessed as decrease in weight loss at 5 mg/kg, ip treated for 3 days and on third day administered with LPS at 30 mins post-compound challenge. It is filed as functional, organism-based. The conditions noted are these: time 3.0 day.
Data set [4] has as its system Mus musculus. Kind of data set: Anti-inflammatory activity against LPS-stimulated acute lung injury C57BL/6 mouse model assessed as decrease in inflammatory cell infiltration in right lung at 5 mg/kg, ip treated for 3 days and on third day administered with LPS at 30 mins post-compound challenge and measured after 12 hrs by Hematoxylin-Eosin staining analysis. Type of data set: functional, organism-based. The following applies: time 3.5 day.

Data set [5] relates to Mus musculus. Kind of data set: Anti-inflammatory activity against LPS-stimulated acute lung injury C57BL/6 mouse model assessed as decrease in alveolar dilation in right lung at 5 mg/kg, ip treated for 3 days and on third day administered with LPS at 30 mins post-compound challenge and measured after 12 hrs by Hematoxylin-Eosin staining analysis. The conditions noted are these: time 3.5 day. Type of data set: functional, organism-based.

The test system of data set [6] is Mus musculus. Kind of data set: Anti-inflammatory activity against LPS-stimulated acute lung injury C57BL/6 mouse model assessed as decrease in thickening of alveolar septa in right lung at 5 mg/kg, ip treated for 3 days and on third day administered with LPS at 30 mins post-compound challenge and measured after 12 hrs by Hematoxylin-Eosin staining analysis. Type of data set: functional, organism-based. The conditions noted are these: time 3.5 day.

Data set [7] deals with Mus musculus. Kind of data set: Anti-inflammatory activity against LPS-stimulated acute lung injury C57BL/6 mouse model assessed as decrease in partial alveolar congestion in right lung at 5 mg/kg, ip treated for 3 days and on third day administered with LPS at 30 mins post-compound challenge and measured after 12 hrs by Hematoxylin-Eosin staining analysis. It is filed as functional, organism-based. The conditions noted are these: time 3.5 day.

The target of data set [8] is NACHT, LRR and PYD domains-containing protein 3 (Mus musculus, UniProt Q8R4B8). Kind of data set: Inhibition of NLRP3 inflammasome activation in ICR mouse BMDM assessed as inhibition of LPS/ATP-stimulated IL-1 beta production in cell supernatant treated for 3 hrs with LPS followed by incubation with compound for 1 hr and later stimulated with ATP for 0.5 hrs by ELISA. Type of data set: cell-based. (In general: An ELISA detects its analyte on a solid surface through an enzyme-linked reagent.)
Chain of NACHT, LRR and PYD domains-containing protein 3 (Q8R4B8 whole entry, the tested form may be a part): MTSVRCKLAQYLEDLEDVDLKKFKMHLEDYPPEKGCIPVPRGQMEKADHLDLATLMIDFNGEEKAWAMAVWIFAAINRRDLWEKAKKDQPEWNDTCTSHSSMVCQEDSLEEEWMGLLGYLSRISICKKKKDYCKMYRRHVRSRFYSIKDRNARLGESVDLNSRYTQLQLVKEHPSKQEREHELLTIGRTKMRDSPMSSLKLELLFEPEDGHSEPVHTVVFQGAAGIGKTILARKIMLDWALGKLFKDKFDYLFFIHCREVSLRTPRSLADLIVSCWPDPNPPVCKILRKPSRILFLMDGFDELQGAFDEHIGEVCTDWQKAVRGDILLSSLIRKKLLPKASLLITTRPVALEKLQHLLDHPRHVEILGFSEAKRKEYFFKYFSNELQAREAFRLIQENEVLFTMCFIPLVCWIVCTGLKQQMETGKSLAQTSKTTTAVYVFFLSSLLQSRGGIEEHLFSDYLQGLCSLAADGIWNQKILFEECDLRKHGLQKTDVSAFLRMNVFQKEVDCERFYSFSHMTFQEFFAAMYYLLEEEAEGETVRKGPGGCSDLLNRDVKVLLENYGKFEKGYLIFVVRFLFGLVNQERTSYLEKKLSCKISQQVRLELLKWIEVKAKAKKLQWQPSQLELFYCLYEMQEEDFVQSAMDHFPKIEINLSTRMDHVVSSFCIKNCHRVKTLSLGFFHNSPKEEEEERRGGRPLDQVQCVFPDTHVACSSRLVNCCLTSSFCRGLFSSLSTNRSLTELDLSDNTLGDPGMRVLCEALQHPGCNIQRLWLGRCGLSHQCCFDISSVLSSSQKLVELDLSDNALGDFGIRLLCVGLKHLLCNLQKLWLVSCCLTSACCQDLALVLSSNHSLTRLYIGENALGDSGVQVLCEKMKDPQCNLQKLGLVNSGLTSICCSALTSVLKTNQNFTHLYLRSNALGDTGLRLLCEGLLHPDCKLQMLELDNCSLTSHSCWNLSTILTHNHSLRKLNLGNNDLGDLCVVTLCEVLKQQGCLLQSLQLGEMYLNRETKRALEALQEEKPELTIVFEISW

Data set [9] concerns Mus musculus. Kind of data set: Anti-inflammatory activity against LPS-stimulated acute lung injury C57BL/6 mouse model assessed as decrease in weight loss at 1 mg/kg, ip treated for 3 days and on third day administered with LPS at 30 mins post-compound challenge. The conditions noted are these: time 3.0 day. Type of data set: functional, organism-based.

With `CC(C)(O)c1coc(S(=O)(=O)NC(=O)Nc2c3c(cc4c2CCC4)CCC3)c1`, the IC50 at 24 h in data set [1] was more than 10000 nM.
Take `C[C@@H]1C[C@H]2[C@@H]3CCC4=CC(=O)C=C[C@]4(C)[C@@]3(F)[C@@H](O)C[C@]2(C)[C@@]1(O)C(=O)CO`: the result with Mus musculus [2], with Mus musculus [3], in the data set with Mus musculus [4], in the data set with Mus musculus [5], in the data set with Mus musculus [6] and in the data set with Mus musculus [7] was Active.
As to `C=C1C(=O)[C@]23[C@H](OC(=O)NC4CCCC4)[C@H]1CC[C@H]2[C@]12C=CCC(C)(C)[C@H]1[C@H](O)[C@@]3(O)OC2`, in data set [8], the IC50 turned out to be 178 nM. Further, in [1], the IC50 at 24 h is more than 10000 nM.
In the same order, the values of `C=C1C(=O)[C@]23[C@H](OC(=O)Nc4ccccc4Cl)[C@H]1CC[C@H]2[C@]12C=CCC(C)(C)[C@H]1[C@H](O)[C@@]3(O)OC2` are 88.6 nM and more than 10000 nM.
As to `C=C1C(=O)[C@]23[C@H](O)[C@H]1CC[C@H]2[C@@]12CO[C@]3(O)[C@@H](O)[C@@H]1C(C)(C)CC[C@@H]2O` [ORIDONIN], the IC50 in [8] was found to be 1240 nM. For the same molecule, in [1], the IC50 at 24 h is more than 10000 nM. Further, in the data set on Mus musculus [9], the outcome was Active.
Regarding `C=C1C(=O)[C@]23[C@H](OC(=O)Nc4ccccn4)[C@H]1CC[C@H]2[C@]12C=CCC(C)(C)[C@H]1[C@H](O)[C@@]3(O)OC2`, in [8], the IC50 amounted to 96.1 nM. In addition, in data set [1], the IC50 at 24 h was more than 10000 nM.
Taken in the same sequence, the figures for `C=C1C(=O)[C@]23[C@H](OC(=O)NC4CCCCC4)[C@H]1CC[C@H]2[C@]12C=CCC(C)(C)[C@H]1[C@H](O)[C@@]3(O)OC2` were 135 nM and more than 10000 nM.
Taken in the same sequence, the figures for `C=C1C(=O)[C@]23[C@H](OC(=O)Nc4cccc5ccccc45)[C@H]1CC[C@H]2[C@]12C=CCC(C)(C)[C@H]1[C@H](O)[C@@]3(O)OC2` were 74.9 nM and more than 10000 nM.
In the same order, the values of `C=C1C(=O)[C@]23[C@H](OC(=O)Nc4cccc(Cl)c4)[C@H]1CC[C@H]2[C@]12C=CCC(C)(C)[C@H]1[C@H](O)[C@@]3(O)OC2` are 80.8 nM and more than 10000 nM.
For `C=C1C(=O)[C@]23[C@H](O)[C@H]1CC[C@H]2[C@]12C=CCC(C)(C)[C@H]1[C@H](O)[C@@]3(O)OC2`, the IC50 in [8] was 131 nM. In addition, the IC50 at 24 h in data set [1] was more than 10000 nM.

In general, IC50 refers to the concentration that inhibits the measured activity by half.
